Measured values from patent US20220146526A1, “METHOD FOR EVALUATING SAMPLE, ANALYSIS METHOD, METHOD FOR DETECTING DEGRADED SAMPLE, MARKER FOR DETECTING DEGRADED BLOOD PLASMA SAMPLE, AND MARKER FOR DETECTING DEGRADED SERUM SAMPLE” (SHIMADZU CORPORATION, priority 2019, published 2022).

Legend:
Type in all cases: physicochemical, human
[1] = GC/MS of serum sample: time from blood collection to centrifugation (Table G); conditions: blood collection to centrifugation; for Rate of increase or decrease: detection intensity relative to 1 at 15 minutes; for Increase or decrease: detection intensity
Summary of the method: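 Blood was held for varying times before centrifugation (room temperature, 3500 rpm, 5 min); serum was frozen, then methoxymated and trimethylsilylated for GC/MS with electron ionization in MRM mode. Values are detection intensities relative to the 15-minute collection-to-centrifugation condition, set as 1.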

[2] = GC/MS of blood plasma sample: time from blood collection to cooling of blood (Table B); parameters: key to Rate of increase or decrease / Rate of increase or decrease (first value, increase): detection intensity relative to 1 at cooling time ≤1 min; conditions: for Rate of increase or decrease: detection intensity relative to 1 at 1 minute or less, blood collection to cooling 5 minutes; for Increase or decrease: detection intensity, blood collection to cooling 5 minutes or more vs 1 minute or less; for Rate of increase or decrease (second value, decrease) / Rate of increase or decrease (first value, increase): different from individual to individual, relative to 1 at 1 minute or less, collection to cooling 5 minutes; for Rate of increase or decrease (second value, decrease): individuals with decrease; for Rate of increase or decrease (first value, increase): individuals with increase
Description: (§1) At room temperature, 5 mL of blood from a healthy subject was taken into a blood-collecting vessel containing EDTA, and the blood-collecting vessel was inverted for mixing, then cooled, and allowed to stand at 4° C. Here, in order to investigate how the detection intensity of molecules contained in the sample was affected in a case where the time to cooling was set to 5 minutes or more as compared to that in a case where the time to cooling was set to 1 minute or less, preparations were performed under both the former condition and the latter condition. After standing, the blood sample was subjected to centrifugation under a condition of 4° C., 3000 rpm, and 15 minutes. […] After centrifugation, the blood-collecting vessel was left to stand at room temperature for 30 minutes, and the blood plasma was isolated during this 30 minutes. The obtained blood plasma sample was frozen and stored. Here, in order to investigate how the detection intensity of molecules contained in the sample was affected in cases where freezing and thawing was performed 4 times, 6 times, and 10 times after freezing as compared to that in a case where freezing and thawing was performed 2 times after freezing, freezing and thawing was performed under the respective conditions of 2, 4, 6, and 10 times.
(§2) Frozen blood plasma samples and serum samples were subjected to GC/MS or LC/MS. In GC/MS, the blood plasma samples and serum samples were subjected to methoxymation and trimethylsilylation and then introduced to GC-MS.
(§3) GC/MS was conducted using GCMS·TQ8040 (Shimadzu Corporation) that was a GC·MS equipped with AOC·20i (Shimadzu Corporation) as an autosampler.
(§4) Column: BPX5 (inner diameter of 0.25 mm, length of 30 m, and film thickness of 0.25 μm) (SGE)
(§5) Column temperature: maintained at 60° C. for 2 minutes, then raised at 15° C./min, and maintained at 330° C. for 3 minutes.
(§6) Inlet temperature: 250° C.
(§7) Carrier gas control mode: constant linear velocity of 39.0 cm/sec
(§8) Sample introduction method: split (split ratio of 30:1) Injection volume: 1 μL
(§9) Ionization method: electron ionization
(§10) Ionization current: 60 μA
(§11) Interface temperature: 280° C.
(§12) Ion source temperature: 200° C.
(§13) Mode: multiple reaction monitoring (MRM)
Table B presents compounds of which the detection intensity increased or decreased by 30% or more in a case where the time from blood collection to cooling of blood, when a blood plasma sample was analyzed by GC/MS, was set to 5 minutes or more as compared to that in a case where the time was set to 1 minute or less. The rate of increase or decrease in Table B is the value of detection intensity relative to 1 that is the detection intensity in a case where the time from blood collection to cooling is set to 1 minute or less.

[3] = LC/MS of serum sample: number of times of freezing and thawing (Table M); parameters: key to Rate of increase or decrease: detection intensity relative to 1 at 2 freeze-thaw cycles
Summary of the method: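 Serum was isolated at room temperature after centrifugation at room temperature, 3500 rpm, 5 minutes, then frozen and freeze-thawed 2, 4, 6 or 10 times. LC/MS used a Discovery HS F5-3 column at 40° C with formic acid water/acetonitrile, electrospray MRM. Intensity is relative to 2 freeze-thaw cycles.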

[4] = GC/MS of blood plasma sample: time from blood collection to centrifugation (Table A); conditions: for Rate of increase or decrease: detection intensity relative to 1 at 15 minutes; for Rate of increase or decrease / Increase or decrease: blood collection to centrifugation; for Increase or decrease: detection intensity
Description: as §1, §2, §3, §4, §5, §6, §7, §8, §9, §10, §11, §12, §13
The rate of increase or decrease in Table A is the value of detection intensity relative to 1 that is the detection intensity in a case where the time from blood collection to centrifugation is set to 15 minutes.

[5] = LC/MS of blood plasma sample: time from blood collection to centrifugation (Table D); conditions: blood collection to centrifugation
Summary of the method: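 Healthy-subject blood (5 mL, EDTA) cooled and held at 4 °C before centrifugation (4 °C, 3000 rpm, 15 min), with plasma then frozen. LC/MS on Discovery HS F5-3 column at 40 °C, 0.1% formic acid water/acetonitrile, 0.25 mL/min, electrospray, MRM; intensities relative to 15 min collection-to-centrifugation set as 1.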

[6] = GC/MS of serum sample: number of times of freezing and thawing (Table I); parameters: key to Rate of increase or decrease / Rate of increase or decrease (first value, increase): detection intensity relative to 2 freeze-thaw cycles = 1; conditions: for Number of times when compound is affected: detection intensity changed by 30% or more vs 2 times of freezing and thawing
Summary of the method: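 Serum was isolated after centrifugation at room temperature (3500 rpm, 5 min), frozen, and put through 2, 4, 6 or 10 freeze–thaw cycles. Samples were methoxymated and trimethylsilylated, then run by electron-ionization GC/MS in MRM mode on a BPX5 column (60 to 330 °C). Detection intensity is given relative to the 2-cycle sample, set as 1.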

[7] = GC/MS of blood plasma sample: number of times of freezing and thawing (Table C)
Description: as §1, §2, §3, §4, §5, §6, §7, §8, §9, §10, §11, §12, §13
The rate of increase or decrease in Table C is the value of detection intensity relative to 1 that is the detection intensity in a case where the number of times of freezing and thawing is set to 2 times.

[8] = GC/MS of serum sample: time from centrifugation to isolation (Table H); parameters: key to Rate of increase or decrease / Rate of increase or decrease (first value, increase): detection intensity relative to 1 at 30 min centrifugation-to-isolation; conditions: for Increase or decrease: detection intensity, after 6 hours vs 30 minutes
Summary of the method: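 Blood was centrifuged at room temperature, 3500 rpm, 5 min, and the vessel left at room temperature for 30 min, 1 h or 6 h before serum isolation. Serum was methoxymated, trimethylsilylated and analysed by GC/MS with electron ionization in MRM mode; intensities expressed relative to the 30-min condition (=1).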

[9] = 10 times of freezing and thawing, relative to 1 at 2 times, different from individual to individual, first value (increase)
[10] = 10 times of freezing and thawing, relative to 1 at 2 times, different from individual to individual, second value (decrease)
[11] = serum sample, GC/MS, detection intensity vs 2 times of freezing and thawing

Row | SMILES | Rate of increase or decrease [2] | Increase or decrease [2] | Rate of increase or decrease [6, 9] | Rate of increase or decrease [6, 10] | Number of times when compound is affected ([6]; serum sample, GC/MS) | Increase or decrease [6, 11] | Rate of increase or decrease ([1]; after 4 hours) | Increase or decrease ([1]; after 4 hours vs 15 minutes) | Rate of increase or decrease (second value, decrease) [2] | Rate of increase or decrease (first value, increase) [2] | Increase or decrease ([4]; after 4 hours vs 15 minutes) | Increase or decrease [8] | further results
1 | NCCS(=O)O [Hypotaurine] | 1.43 | Increase |  |  |  |  | 1.69 | Increase |  |  |  |  | Rate of increase or decrease ([4]; after 8 hours): 1.36; Increase or decrease ([4]; after 8 hours vs 15 minutes): Increase
2 | Cn1c(=O)[nH]c2ncn(C)c2c1=O [Paraxanthine] |  | Different from individual | 2.65 | 0.63 | 10 times | Different from individual | 2.98 | Increase | 0.67 | 2.33 |  | Different from individual | Rate of increase or decrease (second value, decrease) ([8]; different from individual to individual, individuals with decrease, relative to 1 at 30 minutes, after 6 hours): 0.61; Rate of increase or decrease (first value, increase) ([8]; different from individual to individual, individuals with increase, relative to 1 at 30 minutes, after 6 hours): 2.04
3 | O=C(O)C(=O)O [Oxalic acid] | 1.58 | Increase |  |  |  |  | 1.31 | Increase |  |  | Different from individual | Increase | Rate of increase or decrease (second value, decrease) ([4]; different from individual to individual, individuals with decrease, relative to 1 at 15 minutes, collection to centrifugation, after 4 hours): 0.32; Rate of increase or decrease (first value, increase) ([4]; different from individual to individual, individuals with increase, relative to 1 at 15 minutes, collection to centrifugation, after 4 hours): 3.80; Rate of increase or decrease ([8]; detection intensity relative to 1 at 30 minutes, after 6 hours): 1.67; Rate of increase or decrease ([6]; detection intensity relative to 1 at 2 times, serum, GC/MS, freezing and thawing 4 times): 0.61; Increase or decrease ([6]; detection intensity, serum, GC/MS, freezing and thawing 4 times vs 2 times): Decrease

Now from value to molecule, other results behind:

Row | Rate of increase or decrease [2] | Increase or decrease [2] | Rate of increase or decrease [6, 9] | Rate of increase or decrease [6, 10] | Number of times when compound is affected ([6]; serum sample, GC/MS) | Increase or decrease [6, 11] | Rate of increase or decrease ([1]; after 4 hours) | Increase or decrease ([1]; after 4 hours vs 15 minutes) | Rate of increase or decrease (second value, decrease) [2] | Rate of increase or decrease (first value, increase) [2] | Increase or decrease ([4]; after 4 hours vs 15 minutes) | Increase or decrease [8] | SMILES | further results
4 | 0.49 | Decrease | 1.33 | 0.66 | 10 times | Different from individual |  |  |  |  |  |  | O=c1[nH]c(=O)c2[nH]c(=O)[nH]c2[nH]1 [Uric acid] | Rate of increase or decrease ([1]; after 8 hours): 0.69; Increase or decrease ([1]; after 8 hours vs 15 minutes): Decrease; Rate of increase or decrease ([3]; 6 times of freezing and thawing, detection intensity relative to 1 at 2 times): 0.70; Number of times when compound is affected ([3]; serum sample, LC/MS, detection intensity changed by 30% or more vs 2 times of freezing and thawing): 6 times; Increase or decrease ([3]; serum sample, LC/MS, detection intensity vs 2 times of freezing and thawing): Decrease; Rate of increase or decrease ([4]; after 12 hours): 1.89; Increase or decrease ([4]; after 12 hours vs 15 minutes): Increase; Rate of increase or decrease ([5]; detection intensity relative to 1 at 15 minutes, after 12 hours): 1.52; Increase or decrease ([5]; detection intensity, after 12 hours vs 15 minutes): Increase
5 |  | Different from individual |  |  |  |  |  |  | 0.41 | 1.67 | Increase |  | O=C(O)c1cccnc1C(=O)O [Quinolinic acid] | Increase or decrease ([7]; detection intensity, freezing and thawing 4 times vs 2 times): Different from individual; Rate of increase or decrease (second value, decrease) ([7]; different from individual to individual, individuals with decrease, relative to 1 at 2 times, freezing and thawing 4 times): 0.68; Rate of increase or decrease (first value, increase) ([7]; different from individual to individual, individuals with increase, relative to 1 at 2 times, freezing and thawing 4 times): 1.70; Rate of increase or decrease ([4]; after 4 hours): 2.24
